Source: ChEMBL document CHEMBL5126517, “Structure-Activity Relationship in the Leucettine Family of Kinase Inhibitors” (J Med Chem, 2022)

target: Glycogen synthase kinase-3 (Sus scrofa, UniProt B2LUN4+I6LNT8); assay: Inhibition of porcine brain GSK-3alpha/beta using YRRAAVPPSPSLSRHSSPHQpSEDEEE as substrate incubated for 30 mins in presence of ATP by scintillation counting method; type: tissue-based; conditions: not given

Structure (SMILES)	IC50 [nM]
O=C1NC(Nc2ccc(F)cc2)=N/C1=C\c1ccc2c(c1)OCO2	8800
Cc1ccc(NC2=N/C(=C\c3ccc4c(c3)OCO4)C(=O)N2)c(C)c1	1400
O=C1NC(Nc2ccc(O)c(F)c2)=N/C1=C\c1ccc2c(c1)OCO2	550

target: Dual specificity protein kinase CLK4 (Mus musculus, UniProt O35493); assay: Inhibition of GST-fused mouse recombinant CLK4 expressed in Escherichia coli using GRSRSRSRSRSR peptide as substrate incubated for 30 mins in presence of ATP by scintillation counting method; conditions: not given
Sequence (O35493 whole entry, the tested form may be a part): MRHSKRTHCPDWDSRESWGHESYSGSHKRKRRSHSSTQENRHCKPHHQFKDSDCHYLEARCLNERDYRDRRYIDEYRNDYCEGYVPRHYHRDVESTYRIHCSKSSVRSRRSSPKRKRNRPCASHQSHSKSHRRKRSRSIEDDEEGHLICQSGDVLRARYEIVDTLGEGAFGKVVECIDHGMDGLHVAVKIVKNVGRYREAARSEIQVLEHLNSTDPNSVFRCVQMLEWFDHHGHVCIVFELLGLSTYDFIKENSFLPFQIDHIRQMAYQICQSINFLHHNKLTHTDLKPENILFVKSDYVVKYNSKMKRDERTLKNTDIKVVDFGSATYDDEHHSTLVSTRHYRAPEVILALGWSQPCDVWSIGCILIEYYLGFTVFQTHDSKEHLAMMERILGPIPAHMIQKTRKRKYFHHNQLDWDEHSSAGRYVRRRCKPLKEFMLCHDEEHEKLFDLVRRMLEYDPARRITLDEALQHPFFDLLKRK

Structure (SMILES)	IC50 [nM]
O=C1NC(Nc2ccc(F)cc2)=N/C1=C\c1ccc2c(c1)OCO2	50
Cc1ccc(NC2=N/C(=C\c3ccc4c(c3)OCO4)C(=O)N2)c(C)c1	140
O=C1NC(Nc2ccc(O)c(F)c2)=N/C1=C\c1ccc2c(c1)OCO2	19

target: Dual specificity protein kinase CLK3 (Mus musculus, UniProt O35492); assay: Inhibition of GST-fused mouse recombinant CLK3 expressed in Escherichia coli using GRSRSRSRSRSR peptide as substrate incubated for 30 mins in presence of ATP by scintillation counting method; conditions: not given
Sequence (O35492 whole entry, the tested form may be a part): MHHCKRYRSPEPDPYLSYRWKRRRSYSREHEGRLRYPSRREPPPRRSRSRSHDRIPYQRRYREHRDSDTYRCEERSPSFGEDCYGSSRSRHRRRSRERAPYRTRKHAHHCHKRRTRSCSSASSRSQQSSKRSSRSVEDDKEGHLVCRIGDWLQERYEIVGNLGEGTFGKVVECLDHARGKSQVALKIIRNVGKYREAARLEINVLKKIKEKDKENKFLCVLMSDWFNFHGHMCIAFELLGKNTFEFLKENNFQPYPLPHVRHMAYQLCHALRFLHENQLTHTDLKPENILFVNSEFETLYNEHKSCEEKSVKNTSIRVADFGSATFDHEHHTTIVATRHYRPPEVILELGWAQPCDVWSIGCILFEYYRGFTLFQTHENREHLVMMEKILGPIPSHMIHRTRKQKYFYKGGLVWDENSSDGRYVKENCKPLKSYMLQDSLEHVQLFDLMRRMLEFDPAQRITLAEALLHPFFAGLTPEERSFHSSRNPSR

Structure (SMILES)	IC50 [nM]
O=C1NC(Nc2ccc(F)cc2)=N/C1=C\c1ccc2c(c1)OCO2	> 10000
Cc1ccc(NC2=N/C(=C\c3ccc4c(c3)OCO4)C(=O)N2)c(C)c1	> 10000
O=C1NC(Nc2ccc(O)c(F)c2)=N/C1=C\c1ccc2c(c1)OCO2	400

target: Dual specificity protein kinase CLK1 (Mus musculus, UniProt P22518); assay: Inhibition of GST-fused mouse recombinant CLK1 expressed in Escherichia coli using GRSRSRSRSRSR peptide as substrate incubated for 30 mins in presence of ATP by scintillation counting method; conditions: not given
Sequence (P22518 whole entry, the tested form may be a part): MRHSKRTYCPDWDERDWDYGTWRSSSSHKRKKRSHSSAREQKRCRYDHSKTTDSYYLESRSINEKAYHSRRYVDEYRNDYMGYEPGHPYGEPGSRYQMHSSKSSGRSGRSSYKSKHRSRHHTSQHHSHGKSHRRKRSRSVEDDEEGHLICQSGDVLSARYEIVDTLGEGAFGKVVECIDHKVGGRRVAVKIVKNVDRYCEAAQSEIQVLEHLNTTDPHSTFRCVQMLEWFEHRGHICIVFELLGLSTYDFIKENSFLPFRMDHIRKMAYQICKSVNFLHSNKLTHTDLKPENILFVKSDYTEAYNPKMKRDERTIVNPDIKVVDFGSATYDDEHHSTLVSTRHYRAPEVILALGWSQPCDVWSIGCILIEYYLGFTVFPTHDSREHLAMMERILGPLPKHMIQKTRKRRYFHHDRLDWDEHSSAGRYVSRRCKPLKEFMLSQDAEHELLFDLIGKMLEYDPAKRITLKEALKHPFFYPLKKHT

Structure (SMILES)	IC50 [nM]
O=C1NC(Nc2ccc(F)cc2)=N/C1=C\c1ccc2c(c1)OCO2	62
Cc1ccc(NC2=N/C(=C\c3ccc4c(c3)OCO4)C(=O)N2)c(C)c1	240
O=C1NC(Nc2ccc(O)c(F)c2)=N/C1=C\c1ccc2c(c1)OCO2	16

target: Dual specificity protein kinase CLK2 (Mus musculus, UniProt O35491); assay: Inhibition of mouse recombinant GST-fused CLK2 expressed in Escherichia coli using GRSRSRSRSRSR peptide as substrate incubated for 30 mins in presence of ATP by scintillation counting method; conditions: not given
Sequence (O35491 whole entry, the tested form may be a part): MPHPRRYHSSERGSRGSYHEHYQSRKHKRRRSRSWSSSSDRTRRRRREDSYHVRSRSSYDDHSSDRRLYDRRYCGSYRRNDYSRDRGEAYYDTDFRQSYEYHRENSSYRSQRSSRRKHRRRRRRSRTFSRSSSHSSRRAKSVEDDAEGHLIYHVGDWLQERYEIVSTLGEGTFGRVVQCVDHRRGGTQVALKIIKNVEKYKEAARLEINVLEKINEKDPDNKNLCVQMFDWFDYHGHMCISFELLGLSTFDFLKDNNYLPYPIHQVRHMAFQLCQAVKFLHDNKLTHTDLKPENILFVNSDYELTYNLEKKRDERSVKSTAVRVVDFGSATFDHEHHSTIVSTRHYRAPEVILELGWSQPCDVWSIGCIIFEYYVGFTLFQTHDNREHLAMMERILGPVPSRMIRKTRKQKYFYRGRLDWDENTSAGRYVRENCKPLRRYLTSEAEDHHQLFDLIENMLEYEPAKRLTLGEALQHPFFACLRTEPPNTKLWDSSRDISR

Structure (SMILES)	IC50 [nM]
O=C1NC(Nc2ccc(F)cc2)=N/C1=C\c1ccc2c(c1)OCO2	260
Cc1ccc(NC2=N/C(=C\c3ccc4c(c3)OCO4)C(=O)N2)c(C)c1	1100
O=C1NC(Nc2ccc(O)c(F)c2)=N/C1=C\c1ccc2c(c1)OCO2	120

target: Dual specificity tyrosine-phosphorylation-regulated kinase 1A (Homo sapiens, UniProt Q13627); assay: Inhibition of GST-fused human recombinant DYRK1A expressed in Escherichia coli using GRSRSRSRSRSR peptide as substrate incubated for 30 mins in presence of ATP by scintillation counting method; conditions: not given

Structure (SMILES)	IC50 [nM]
O=C1NC(Nc2ccc(F)cc2)=N/C1=C\c1ccc2c(c1)OCO2	28
Cc1ccc(NC2=N/C(=C\c3ccc4c(c3)OCO4)C(=O)N2)c(C)c1	72
O=C1NC(Nc2ccc(O)c(F)c2)=N/C1=C\c1ccc2c(c1)OCO2	12

target: Dual specificity tyrosine-phosphorylation-regulated kinase 1B (Homo sapiens, UniProt Q9Y463); conditions: not given
Sequence (Q9Y463 whole entry): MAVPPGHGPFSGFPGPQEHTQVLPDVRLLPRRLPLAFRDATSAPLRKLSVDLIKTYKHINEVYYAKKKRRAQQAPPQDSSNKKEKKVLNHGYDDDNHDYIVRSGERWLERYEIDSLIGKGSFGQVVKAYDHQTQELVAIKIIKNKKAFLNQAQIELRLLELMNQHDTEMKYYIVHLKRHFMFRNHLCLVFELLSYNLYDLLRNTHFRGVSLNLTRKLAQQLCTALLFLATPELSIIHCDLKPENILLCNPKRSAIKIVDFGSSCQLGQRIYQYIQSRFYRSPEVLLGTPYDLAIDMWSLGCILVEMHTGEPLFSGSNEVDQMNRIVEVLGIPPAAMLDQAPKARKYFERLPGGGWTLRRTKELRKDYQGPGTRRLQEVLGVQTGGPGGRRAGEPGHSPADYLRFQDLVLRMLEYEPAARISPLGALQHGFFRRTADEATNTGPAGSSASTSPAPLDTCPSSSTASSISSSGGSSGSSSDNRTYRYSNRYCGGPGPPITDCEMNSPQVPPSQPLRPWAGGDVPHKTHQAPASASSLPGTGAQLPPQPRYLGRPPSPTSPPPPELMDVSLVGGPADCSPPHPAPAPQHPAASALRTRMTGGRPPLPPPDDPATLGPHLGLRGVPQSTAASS

Structure (SMILES)	IC50 [nM]
O=C1NC(Nc2ccc(F)cc2)=N/C1=C\c1ccc2c(c1)OCO2	100
Cc1ccc(NC2=N/C(=C\c3ccc4c(c3)OCO4)C(=O)N2)c(C)c1	160
O=C1NC(Nc2ccc(O)c(F)c2)=N/C1=C\c1ccc2c(c1)OCO2	23

target: T1, Dual specificity tyrosine-phosphorylation-regulated kinase 2 (Homo sapiens, UniProt Q92630); assay: Inhibition of GST-fused human recombinant DYRK2 expressed in Escherichia coli using GRSRSRSRSRSR peptide as substrate incubated for 30 mins in presence of ATP by scintillation counting method; conditions: not given
T1 sequence (Q92630 whole entry): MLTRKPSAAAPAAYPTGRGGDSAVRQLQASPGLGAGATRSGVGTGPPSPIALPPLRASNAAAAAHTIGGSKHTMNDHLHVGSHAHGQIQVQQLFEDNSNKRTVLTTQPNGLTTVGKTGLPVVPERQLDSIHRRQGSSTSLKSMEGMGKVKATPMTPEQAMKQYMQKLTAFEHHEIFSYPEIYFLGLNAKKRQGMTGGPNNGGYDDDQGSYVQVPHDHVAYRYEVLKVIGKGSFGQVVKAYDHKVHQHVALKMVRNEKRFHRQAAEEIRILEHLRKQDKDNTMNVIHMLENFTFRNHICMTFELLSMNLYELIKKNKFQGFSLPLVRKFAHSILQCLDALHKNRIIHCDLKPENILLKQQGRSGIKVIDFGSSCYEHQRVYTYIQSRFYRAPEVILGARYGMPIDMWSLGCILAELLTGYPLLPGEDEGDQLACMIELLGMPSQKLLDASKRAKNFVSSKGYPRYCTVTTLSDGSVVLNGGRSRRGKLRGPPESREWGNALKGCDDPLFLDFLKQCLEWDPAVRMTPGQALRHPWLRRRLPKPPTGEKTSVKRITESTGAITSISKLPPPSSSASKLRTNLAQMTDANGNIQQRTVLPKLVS

Structure (SMILES)	IC50 [nM]
O=C1NC(Nc2ccc(F)cc2)=N/C1=C\c1ccc2c(c1)OCO2	35
Cc1ccc(NC2=N/C(=C\c3ccc4c(c3)OCO4)C(=O)N2)c(C)c1	75
O=C1NC(Nc2ccc(O)c(F)c2)=N/C1=C\c1ccc2c(c1)OCO2	11

target: T2, Dual specificity tyrosine-phosphorylation-regulated kinase 3 (Homo sapiens, UniProt O43781); assay: Inhibition of GST-fused human recombinant DYRK3 expressed in Escherichia coli using GRSRSRSRSRSR peptide as substrate incubated for 30 mins in presence of ATP by scintillation counting method; conditions: not given
T2 sequence (O43781 whole entry): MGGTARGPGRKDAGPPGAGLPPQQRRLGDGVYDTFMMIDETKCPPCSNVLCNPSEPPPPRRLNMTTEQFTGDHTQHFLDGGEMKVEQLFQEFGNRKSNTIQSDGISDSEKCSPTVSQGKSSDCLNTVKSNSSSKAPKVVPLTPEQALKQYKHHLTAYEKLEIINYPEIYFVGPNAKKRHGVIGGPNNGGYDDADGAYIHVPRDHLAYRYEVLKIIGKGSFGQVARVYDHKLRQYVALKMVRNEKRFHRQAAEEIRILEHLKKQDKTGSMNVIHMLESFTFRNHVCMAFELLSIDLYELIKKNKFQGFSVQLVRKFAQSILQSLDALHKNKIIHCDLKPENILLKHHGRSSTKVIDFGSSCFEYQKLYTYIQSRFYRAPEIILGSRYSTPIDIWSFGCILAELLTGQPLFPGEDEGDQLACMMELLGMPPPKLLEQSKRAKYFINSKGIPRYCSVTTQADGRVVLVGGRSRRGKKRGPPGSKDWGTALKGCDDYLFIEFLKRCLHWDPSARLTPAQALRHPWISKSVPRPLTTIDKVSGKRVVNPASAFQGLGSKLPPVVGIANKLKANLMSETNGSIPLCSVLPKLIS

Structure (SMILES)	IC50 [nM]
O=C1NC(Nc2ccc(F)cc2)=N/C1=C\c1ccc2c(c1)OCO2	930
Cc1ccc(NC2=N/C(=C\c3ccc4c(c3)OCO4)C(=O)N2)c(C)c1	950
O=C1NC(Nc2ccc(O)c(F)c2)=N/C1=C\c1ccc2c(c1)OCO2	170

target: Serine/threonine-protein kinase pim-1 (Homo sapiens, UniProt P11309); assay: Inhibition of human recombinant Pim1 expressed in Escherichia coli using histone H1 as substrate incubated for 30 mins in presence of ATP by scintillation counting method; conditions: not given
Sequence (P11309 whole entry): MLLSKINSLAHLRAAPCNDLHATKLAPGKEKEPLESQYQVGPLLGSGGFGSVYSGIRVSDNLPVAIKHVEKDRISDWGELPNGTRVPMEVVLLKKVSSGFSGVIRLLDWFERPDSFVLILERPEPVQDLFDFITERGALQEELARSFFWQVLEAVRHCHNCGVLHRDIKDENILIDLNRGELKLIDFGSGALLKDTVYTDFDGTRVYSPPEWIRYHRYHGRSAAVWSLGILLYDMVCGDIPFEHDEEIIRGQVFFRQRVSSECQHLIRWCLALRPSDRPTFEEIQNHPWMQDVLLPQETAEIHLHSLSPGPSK

Structure (SMILES)	IC50 [nM]
O=C1NC(Nc2ccc(F)cc2)=N/C1=C\c1ccc2c(c1)OCO2	9300
Cc1ccc(NC2=N/C(=C\c3ccc4c(c3)OCO4)C(=O)N2)c(C)c1	2500
O=C1NC(Nc2ccc(O)c(F)c2)=N/C1=C\c1ccc2c(c1)OCO2	610

target: Casein kinase 2 (Homo sapiens, UniProt P67870+P68400+P19784+Q8NEV1); assay: Inhibition of human recombinant CK2 using RRRDDDSDDD peptide as substrate incubated for 30 mins in presence of ATP by scintillation counting method; type: protein assay; conditions: not given

Structure (SMILES)	IC50 [nM]
O=C1NC(Nc2ccc(F)cc2)=N/C1=C\c1ccc2c(c1)OCO2	8800
Cc1ccc(NC2=N/C(=C\c3ccc4c(c3)OCO4)C(=O)N2)c(C)c1	2400
O=C1NC(Nc2ccc(O)c(F)c2)=N/C1=C\c1ccc2c(c1)OCO2	320

tested on: HT-22; assay: Neuroprotective activity against glutamate-induced cell death in mouse HT-22 cells treated for 24 hrs by MTS assay; type: functional, cell-based; conditions: HT-22, 24 h

Structure (SMILES)	EC50 [nM]
O=C1NC(Nc2ccc(F)cc2)=N/C1=C\c1ccc2c(c1)OCO2	3600
Cc1ccc(NC2=N/C(=C\c3ccc4c(c3)OCO4)C(=O)N2)c(C)c1	8000
O=C1NC(Nc2ccc(O)c(F)c2)=N/C1=C\c1ccc2c(c1)OCO2	13000

tested on: U2OS; assay: Induction of PI3K/mTor-dependent autophagy in human U2OS cells assessed as number of LC3 foci per cell at 10 uM measured after 4 hrs; type: cell-based; conditions: filed as activator

Structure (SMILES)	Activity
O=C1NC(Nc2ccc(F)cc2)=N/C1=C\c1ccc2c(c1)OCO2	4.9
Cc1ccc(NC2=N/C(=C\c3ccc4c(c3)OCO4)C(=O)N2)c(C)c1	5.6
O=C1NC(Nc2ccc(O)c(F)c2)=N/C1=C\c1ccc2c(c1)OCO2	18.2

target: Cannabinoid receptor 1 (Homo sapiens, UniProt P21554); assay: Antagonist activity at CP-55940-activated CB1 receptor (unknown origin) at 10 uM by beta-arrestin assay relative to control; type: functional; set-up: scale not given: the % may be the effect or the level left; conditions: not given
Sequence (P21554 whole entry): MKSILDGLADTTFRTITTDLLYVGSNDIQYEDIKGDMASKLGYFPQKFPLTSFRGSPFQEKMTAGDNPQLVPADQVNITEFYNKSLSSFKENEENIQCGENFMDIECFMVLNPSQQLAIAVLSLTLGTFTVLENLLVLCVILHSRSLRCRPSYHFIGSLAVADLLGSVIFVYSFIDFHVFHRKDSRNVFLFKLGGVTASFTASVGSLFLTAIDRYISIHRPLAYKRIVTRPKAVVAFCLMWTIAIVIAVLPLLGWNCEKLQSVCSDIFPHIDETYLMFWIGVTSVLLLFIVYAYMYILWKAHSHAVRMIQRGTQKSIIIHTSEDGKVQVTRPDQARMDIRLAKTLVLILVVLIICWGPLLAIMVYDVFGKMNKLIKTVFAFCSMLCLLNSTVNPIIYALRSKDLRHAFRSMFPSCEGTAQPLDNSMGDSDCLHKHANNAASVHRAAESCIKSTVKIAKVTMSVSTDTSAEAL

Structure (SMILES)	Activity [%]
O=C1NC(Nc2ccc(O)c(F)c2)=N/C1=C\c1ccc2c(c1)OCO2	-5.6

same assay, conditions: filed as antagonist

Structure (SMILES)	Activity [%]
O=C1NC(Nc2ccc(F)cc2)=N/C1=C\c1ccc2c(c1)OCO2	76.4
Cc1ccc(NC2=N/C(=C\c3ccc4c(c3)OCO4)C(=O)N2)c(C)c1	65.6

tested on: not listed separately; assay: Neurotoxicity against mouse HT-22 cells assessed as cell survival at 20 uM treated for 24 hrs by MTS assay; type: toxicity, cell-based; conditions: ht-22, 24 h

Structure (SMILES)	Activity
O=C1NC(Nc2ccc(F)cc2)=N/C1=C\c1ccc2c(c1)OCO2	Non-Toxic
Cc1ccc(NC2=N/C(=C\c3ccc4c(c3)OCO4)C(=O)N2)c(C)c1	Non-Toxic
O=C1NC(Nc2ccc(O)c(F)c2)=N/C1=C\c1ccc2c(c1)OCO2	Non-Toxic
